Test results: PubChem BioAssay (NCI)
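Compound exposure: 48 hours, 5 concentrations, 96-well plates. Here, GI50 denotes the concentration required for 50% inhibition of growth. TGI: total growth inhibition.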

Columns and labels:
Assay in all cases: DTP human tumour cell line panel, 48 h
[1] = test system: HT29 colon
[2] = test system: NCI-H522 lung
[3] = test system: HS 578T breast
[4] = test system: NCI-H23 lung
[5] = test system: T-47D breast
[6] = test system: RXF 393 renal
[7] = test system: LOX IMVI melanoma
[8] = test system: SNB-75 CNS
[9] = test system: SK-MEL-28 melanoma
[10] = test system: NCI-H226 lung

| SMILES | TGI [1] | TGI [2] | TGI [3] | TGI [4] | TGI [5] | TGI [6] | TGI [7] | TGI [8] | TGI [9] | TGI [10] | GI50 [1] | GI50 [6] | GI50 [8] | GI50 [9] | GI50 [2] | GI50 [3] | GI50 [4] | GI50 [5] | GI50 [10] | GI50 [7] |
| --- | --- | --- | --- | --- | --- | --- | --- | --- | --- | --- | --- | --- | --- | --- | --- | --- | --- | --- | --- | --- |
| C/C(=N\NC(=S)N1CCC(N2CCCCC2)CC1)c1ccccn1 | 9.88 µM | 0.646 µM | 31.7 µM | 12 µM | 7.01 µM | 2.29 µM | 8.28 µM | 11.2 µM | 13.7 µM |  |  |  |  |  |  |  |  |  |  |  |
| CCOC(=O)/C=C/c1c(C)[nH]c(=O)[nH]c1=O | > 250 µM | > 250 µM |  | > 250 µM |  | > 250 µM | > 250 µM | > 250 µM | > 250 µM | > 250 µM |  |  |  |  |  |  |  |  |  |  |
| CCOC(=O)NC(Nc1cc(Cl)ccc1OC)(C(F)(F)F)C(F)(F)F | > 100 µM | > 100 µM | > 100 µM | > 100 µM | > 100 µM | > 100 µM | > 100 µM | > 100 µM | > 100 µM | > 100 µM |  |  |  |  |  |  |  |  |  |  |
| CN=C(Nc1ccc(OC)c2ccccc12)SC | > 10 µM | > 10 µM | > 10 µM | > 10 µM | > 10 µM |  | > 10 µM | > 10 µM | > 10 µM |  |  |  |  |  |  |  |  |  |  |  |
| O=c1[nH]c(SCc2cccc([N+](=O)[O-])c2)nc2nc[nH]c12 | > 100 µM | > 100 µM | > 100 µM | > 100 µM | > 100 µM | > 100 µM | > 100 µM | > 100 µM | > 100 µM | > 100 µM |  |  |  |  |  |  |  |  |  |  |
| O=c1nc2ccc([N+](=O)[O-])cc2[n+]([O-])[nH]1 | > 100 µM | > 100 µM | > 100 µM | > 100 µM | > 100 µM | > 100 µM | > 100 µM | > 100 µM | > 100 µM | > 100 µM |  |  |  |  |  |  |  |  |  |  |
| c1ccc2c(c1)c1ccccc1n2Cn1c2ccccc2c2ccccc21 | > 100 µM | > 100 µM |  | > 100 µM | > 100 µM | > 100 µM | > 100 µM | > 100 µM | > 100 µM | > 100 µM |  |  |  |  |  |  |  |  |  |  |
| c1cc2c3c(c1)c1cc4c(cc1c[n+]3CC2)OCO4 | 67 µM | 10.1 µM |  | 13.8 µM |  | 32.5 µM | > 96.1 µM | 8.09 µM | 12.3 µM | 4.69 µM |  |  |  |  |  |  |  |  |  |  |
| COc1cc(-c2ccc(N=Nc3ccc4c(S(=O)(=O)O)cc(S(=O)(=O)O)c(N)c4c3O)c(OC)c2)ccc1N=Nc1ccc2c(S(=O)(=O)O)cc(S(=O)(=O)O)c(N)c2c1O | > 100 µM | > 100 µM |  | > 100 µM |  | > 100 µM | > 100 µM | > 100 µM | > 100 µM | > 100 µM |  |  |  |  |  |  |  |  |  |  |
| COc1cccc2c1C(=O)c1c(O)c3c(c(O)c1C2=O)C[C@@](O)(C(=O)COC(=O)c1ccccc1)C[C@@H]3OC1CC(N)C(O)C(C)O1 (some centres not stated) | 0.273 µM |  |  |  |  | 0.859 µM |  | 0.738 µM | 1.95 µM |  | 102 nM | 195 nM | 76.2 nM | 534 nM |  |  |  |  |  |  |
| C/C(=N\NC(=O)c1ccc(Cl)cc1)c1nc2ncccc2[nH]1 | > 100 µM | 58.3 µM | 93.5 µM | > 100 µM | > 100 µM | 55.4 µM | 57.8 µM | 17.9 µM | > 100 µM |  |  |  |  |  |  |  |  |  |  |  |
| O=C(/C=C1\Sc2ccccc2N=C1CC(=O)c1ccccc1)c1ccccc1 | 23.6 µM | 55.4 µM | > 100 µM | > 100 µM | 75.5 µM | > 100 µM | 21.2 µM |  | 57.2 µM | 35.5 µM |  |  |  |  |  |  |  |  |  |  |
| O=c1oc(-c2ccc(O)cc2)cc2cc(O)ccc12 |  | > 100 µM | 64 µM | 57.6 µM | 49 µM | 54.4 µM |  | > 100 µM |  |  |  |  |  |  |  |  |  |  |  |  |
| O=C(NN1C(=O)C(Cl)C1c1cccc([N+](=O)[O-])c1)c1ccccc1O (configuration not stated) | > 100 µM | > 100 µM |  | > 100 µM |  | > 100 µM |  | > 100 µM | > 100 µM |  |  |  |  |  |  |  |  |  |  |  |
| COc1ccc(C2=[S+]C(c3ccccc3)(c3ccccc3)c3ccccc32)cc1 | 30.3 µM | 79.8 µM | 68 µM | 74.8 µM | 84.3 µM | 26 µM | 31.9 µM | 91.1 µM | 58.5 µM | 31.3 µM |  |  |  |  |  |  |  |  |  |  |
| O=C(N/N=C\c1cccc2ccccc12)Nc1ccccc1 | > 100 µM |  | > 100 µM | > 100 µM | > 100 µM | > 100 µM | > 100 µM | > 100 µM | > 100 µM | > 100 µM |  |  |  |  |  |  |  |  |  |  |
| c1ccc2c(c1)NCc1cc3ccccc3nc1O2 | > 100 µM | > 100 µM |  | > 100 µM |  | > 100 µM | > 100 µM | > 100 µM | > 100 µM | > 100 µM |  |  |  |  |  |  |  |  |  |  |
| N#[N+]c1c([O-])c2ccccc2c2ccccc12 | > 100 µM | 85 µM | > 100 µM | > 100 µM | > 100 µM | 45 µM | 86 µM | 82.9 µM | > 100 µM | 89.3 µM |  |  |  |  |  |  |  |  |  |  |
| Cc1cn(-c2cccc(NC(=O)c3ccc(C)c(Nc4nccc(-c5cccnc5)n4)c3)c2)cn1 | 3.74 µM | 3.07 µM | 5.43 µM | 10 µM | 9.6 µM | 3.03 µM | 3.48 µM | 2.97 µM | 3.18 µM | 3.32 µM | 1980 nM | 1620 nM | 1590 nM | 1800 nM | 1440 nM | 1.77 µM | 3.01 µM | 1420 nM | 1.59 µM | 1730 nM |
| Cc1ccc(Cl)cc1N=NC(=O)NNc1cc(Cl)ccc1C | 80.6 µM | 27.6 µM | 54.8 µM | 44.3 µM | > 100 µM | 72.7 µM |  | 36.3 µM | 38.9 µM | 43.1 µM |  |  |  |  |  |  |  |  |  |  |
| Cc1cc(N/N=C/c2nc(-c3ccc(Cl)cc3)oc2C)c2cc(Br)ccc2n1 | 5.99 µM | 4.51 µM | 28.3 µM | 23.6 µM | 3.51 µM | 17.2 µM | 3.73 µM |  | 4.49 µM | 50.4 µM | 2310 nM | 4100 nM |  | 2070 nM | 2020 nM | 4.33 µM | 6 µM | 1790 nM | 17.4 µM | 1930 nM |
| O=C1C(CO)=C[C@H](O)[C@H]2O[C@@H]12 | > 625 µM | 164 µM |  | 588 µM |  | 402 µM | > 393 µM | 561 µM | 294 µM | 371 µM |  |  |  |  |  |  |  |  |  |  |
| O=C1CCC[C@H]2O[C@@H](COC(=O)c3ccccc3)C[C@H]2O1 | > 100 µM |  | > 100 µM | > 100 µM | > 100 µM |  |  | > 100 µM | > 100 µM | > 100 µM |  |  |  |  |  |  |  |  |  |  |
